From US8093251B2, “Nitrogen-containing heterocyclic compounds and thrombopoietin receptor activators” (Nissan Chemical Industries, Ltd., priority 2006, dated 2012)

Biological target: T1, human thrombopoietin receptor (c-mpl) (Homo sapiens, UniProt P40238)
T1 construct: expressed in transfected cells
T1 sequence (P40238 26-635): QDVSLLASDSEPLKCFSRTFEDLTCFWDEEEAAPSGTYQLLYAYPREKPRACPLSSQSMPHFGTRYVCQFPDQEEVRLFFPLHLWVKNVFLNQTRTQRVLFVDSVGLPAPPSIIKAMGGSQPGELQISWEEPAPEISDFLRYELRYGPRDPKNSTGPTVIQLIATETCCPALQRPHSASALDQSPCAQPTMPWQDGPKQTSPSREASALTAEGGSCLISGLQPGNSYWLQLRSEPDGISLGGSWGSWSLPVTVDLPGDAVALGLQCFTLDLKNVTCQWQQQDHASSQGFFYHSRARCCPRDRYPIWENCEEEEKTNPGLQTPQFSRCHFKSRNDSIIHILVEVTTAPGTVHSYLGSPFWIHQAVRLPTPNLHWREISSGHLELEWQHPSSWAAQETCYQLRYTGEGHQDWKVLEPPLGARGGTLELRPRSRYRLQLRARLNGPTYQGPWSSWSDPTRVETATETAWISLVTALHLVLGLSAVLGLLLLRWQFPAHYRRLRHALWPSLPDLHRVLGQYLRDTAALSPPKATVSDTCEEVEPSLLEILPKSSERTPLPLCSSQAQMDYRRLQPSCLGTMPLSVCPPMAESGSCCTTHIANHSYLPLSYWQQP
Assay: Stimulation of proliferation of thrombopoietin-dependent cell line UT7/EPO-mpl (WST-8)
Format: cell-based
Settings: human leukemic cell line UT-7/EPO-mpl, 4 days incubation, WST-8, absorbance at 450 nm; read-out: EC50 (concentration that yields a growth rate corresponding to 50% of the growth observed in the presence of 10 ng/mL TPO) (converted)
Protocol: The responses of thrombopoietin receptor to the compounds of the present invention prepared in the Synthetic Examples were assayed using a human leukemic cell line, UT7/EPO-mpl.
UT7/EPO-mpl is a stable transformed cell line obtained by introducing into human leukemic cell line UT7/EPO a vector that induces expression of human thrombopoietin receptor (c-mpl) under control of cytomegalovirus immediate-early promoter by the method of Takatoku et al. (J. Biol. Chem., 272:7259-7263 (1997)). […] These two cell lines were subcultured in IMDM (GIBCO) containing 10% fetal bovine serum (Thermo Electron or BioWest) using a CO2 incubator (5% CO2, 37° C.).
The subcultured cells described above were washed twice with PBS and suspended in IMDM containing 10% fetal bovine serum at a cell density of 6×10^4 cells/ml. The cell suspension was transferred to a 96-well tissue culture plate (CORNING) in 100-μl aliquots. Then either thrombopoietin (Pepro Tech EC) or the compounds of the Synthetic Examples dissolved in dimethyl sulfoxide were diluted 83-fold with IMDM containing 10% fetal bovine serum and added to the aforementioned cell suspension in 20-μl aliquots. The cell suspension was incubated in a CO2 incubator (5% CO2, 37° C.) for 4 days. […] The formazan pigment generated was detected by measuring the absorbance at 450 nm with a 96-well microplate reader (Nihon Molecular Devices, Spectramax 190). […]

EC50: 71.9 nM
SMILES: CCOC(=O)CN1CCN(C(=S)NNC(C)=C2C(=O)N(c3ccc(C(C)(C)C)cc3)N=C2C)CC1 [Example 7]
